Source: patent US8399465B2, “Compounds with two fused bicyclic heteroaryl moieties as modulators of leukotriene A4 hydrolase” (Janssen Pharmaceutica NV, priority 2009, dated 2013)
Where a name gives a salt, the structure may show the parent alone. Read-outs that look alike come from different tables or passages of the source.

Key:
[1] = target: T1, recombinant human LTA4 hydrolase (rhLTA4H) (Homo sapiens, UniProt P09960); assay: Recombinant human LTA4 hydrolase assay for LTA4 hydrolase inhibitor activity; assay type: biochemical; details: rhLTA4H, LTB4 by immunoassay; single determination or average of two or more; mark after value = form tested: ′ free base, ″ hydrochloride, ^ formate; read-out: IC50
T1 construct: made in house; host or cells: Spodoptera frugiperda (Sf-9) cells, baculovirus (pFastBac1)
T1 sequence (P09960 1-611): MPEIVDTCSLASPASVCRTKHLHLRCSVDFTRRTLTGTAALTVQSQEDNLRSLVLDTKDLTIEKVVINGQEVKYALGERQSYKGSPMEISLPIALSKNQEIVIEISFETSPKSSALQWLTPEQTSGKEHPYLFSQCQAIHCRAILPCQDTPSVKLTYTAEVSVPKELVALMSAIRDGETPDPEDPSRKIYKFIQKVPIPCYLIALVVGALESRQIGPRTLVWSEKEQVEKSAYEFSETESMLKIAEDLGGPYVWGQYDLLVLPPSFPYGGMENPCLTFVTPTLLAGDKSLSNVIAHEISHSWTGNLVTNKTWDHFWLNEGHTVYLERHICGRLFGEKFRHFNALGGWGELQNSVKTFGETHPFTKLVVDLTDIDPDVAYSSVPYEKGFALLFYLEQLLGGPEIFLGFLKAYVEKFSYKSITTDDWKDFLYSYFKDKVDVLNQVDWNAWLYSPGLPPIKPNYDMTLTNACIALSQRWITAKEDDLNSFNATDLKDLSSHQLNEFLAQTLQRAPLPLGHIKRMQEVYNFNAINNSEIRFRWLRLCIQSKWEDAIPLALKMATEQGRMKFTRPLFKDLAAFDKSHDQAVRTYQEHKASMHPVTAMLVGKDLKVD
Summary of the method: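 Baculovirus/Sf-9-expressed human LTA4H (10 ng) was preincubated 10 min at rt with compound in assay buffer (10% DMSO in compound dilution), then reacted 30 min at rt with LTA4 free acid made from its methyl ester. LTB4 produced was measured by ELISA after dilution; IC50 from non-linear regression, single or averaged determinations.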

[2] = tested on: LTB4 production in murine blood (LTA4H); assay: LTB4 production by calcium ionophore-stimulated murine blood for LTA4H inhibitor activity; assay type: cell-based, CD-1 mice; details: Mus musculus
Summary of the method: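 Heparinized blood from CD-1 mice was preincubated with compound for 15 min at 37° C, then stimulated with calcium ionophore A23187 (final 7 μg/mL) for 30 min. Centrifugation stopped the reaction, and LTB4 in the supernatant was measured by enzyme immunoassay. Values are single determinations or means of two or more.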

[3] = tested on: arachidonic acid-induced neutrophil influx in murine ear tissue; assay: Murine arachidonic acid-induced inflammation model: neutrophil influx (myeloperoxidase) in ear; assay type: in vivo, Balb/c mice; details: Mus musculus, read-out: % Inh. MPO
[4] = tested on: ex vivo calcium ionophore-stimulated LTB4 production in whole blood; assay: Murine arachidonic acid-induced inflammation model: ex vivo stimulated LTB4 production in blood; parameters: species or system Balb/c mice; details: Mus musculus; 30 mg/kg oral gavage; blood diluted 1:1, A23187 stimulated ex vivo; percent inhibition of LTB4 production; read-out: % Inh. LTB4
[5] = murine blood diluted 1 in 15, A23187 stimulated, single determination or average, mark after value = form tested: ′ free base, ″ hydrochloride, ^ formate, read-out: IC50
[6] = 30 mg/kg oral gavage, 60 min before topical arachidonic acid, ear biopsy after 3 h, percent inhibition of neutrophil influx

Compound	IC50 [1]	IC50 [2, 5]	inhibition at 30 mg/kg ([3]; Neutrophil)	inhibition at 30 mg/kg [4]	inhibition at 30 mg/kg [3, 6]	IC50 [2]
CC(=O)N1CCN(Cc2coc3cc(Oc4nc5ncccc5s4)ccc23)CC1 [Example 196, 1-{4-[6-(Thiazolo[4,5-b]pyridin-2-yloxy)-benzofuran-3-ylmethyl]-piperazin-1-yl}-ethanone formate]	11 nM	38 nM	93%	91%	–	–
CC(=O)N1C[C@@H]2C[C@H]1CN2Cc1coc2cc(Oc3nc4ncccc4s3)ccc12 [Example 154, (1S,4S)-1-{5-[6-(Thiazolo[4,5-b]pyridin-2-yloxy)-benzofuran-3-ylmethyl]-2,5-diaza-bicyclo[2.2.1]hept-2-yl}-ethanone]	7 nM	26 nM	–	83%	83%	–
O=C(O)C1CCN(Cc2coc3cc(Oc4nc5ccccc5s4)ccc23)CC1 [Example 248, 1-[6-(Benzothiazol-2-yloxy)-benzofuran-3-ylmethyl]-piperidine-4-carboxylic acid formate]	12 nM	–	90%	83%	–	20 nM
O=C(c1coc2cc(Oc3nc4ncccc4s3)ccc12)N1CCC(N2CCCC2=O)CC1 [Example 370, 1-{1-[6-(Thiazolo[4,5-b]pyridin-2-yloxy)-benzofuran-3-carbonyl]-piperidin-4-yl}-pyrrolidin-2-one]	9 nM	30 nM	69%	78%	–	–
CC(C)(C)C(=O)NC1CCN(Cc2cc3ccc(Oc4nc5ncccc5s4)cc3o2)C1 (centres unmarked) [Example 236, 2,2-Dimethyl-N-{1-[6-(thiazolo[4,5-b]pyridin-2-yloxy)-benzofuran-2-ylmethyl]-pyrrolidin-3-yl}-propionamide formate]	60 nM	190 nM	34%	39%	–	–
CC(=O)N1C[C@@H]2C[C@H]1CN2Cc1cc2cc(Oc3nc4ncccc4s3)ccc2o1 [Example 95, (1S,4S)-1-{5-[5-(Thiazolo[4,5-b]pyridin-2-yloxy)-benzofuran-2-ylmethyl]-2,5-diaza-bicyclo[2.2.1]hept-2-yl}-ethanone]	5 nM	26 nM	–	80%	79%	–
O=C(O)C1CCN(Cc2cc3cc(Oc4nc5ccccc5s4)ccc3o2)CC1 [Example 76, 1-[5-(Benzothiazol-2-yloxy)-benzofuran-2-ylmethyl]-piperidine-4-carboxylic acid]	28 nM	48 nM	–	85%	89%	–
CC(=O)N[C@H]1C[C@@H]2C[C@H]1CN2Cc1coc2cc(Oc3nc4ncccc4s3)ccc12 [Example 187, (1S,4S,5S)—N-{2-[6-(Thiazolo[4,5-b]pyridin-2-yloxy)-benzofuran-3-ylmethyl]-2-aza-bicyclo[2.2.1]hept-5-yl}-acetamide]	1 nM	21 nM	–	83%	88%	–
COCCN(C)Cc1coc2cc(Oc3nc4ncccc4s3)ccc12 [Example 184, (2-Methoxy-ethyl)-methyl-[6-(thiazolo[4,5-b]pyridin-2-yloxy)-benzofuran-3-ylmethyl]-amine]	8 nM	49 nM	–	82%	53%	–
CC(=O)NC1CCN(Cc2coc3cc(Oc4nc5ncccc5s4)ccc23)CC1 [Example 197, N-{1-[6-(Thiazolo[4,5-b]pyridin-2-yloxy)-benzofuran-3-ylmethyl]-piperidin-4-yl}-acetamide formate]	4 nM	15 nM	92%	91%	–	–
C[C@H]1COCCN1Cc1c[nH]c2cc(Oc3nc4ncccc4s3)ccc12 [Example 41, (3S)-2-[3-(3-Methyl-morpholin-4-ylmethyl)-1H-indol-6-yloxy]-thiazolo[4,5-b]pyridine]	4 nM	34 nM	–	65%	62%	–

More lines, main results first:

IC50 [1]	IC50 [2, 5]	Compound	inhibition at 30 mg/kg ([3]; Neutrophil)	inhibition at 30 mg/kg [4]	inhibition at 30 mg/kg [3, 6]	IC50 [2]
9 nM	39 nM	CC(=O)N1CCCN(Cc2coc3cc(Oc4nc5ncccc5s4)ccc23)CC1 [Example 182, 1-{4-[6-(Thiazolo[4,5-b]pyridin-2-yloxy)-benzofuran-3-ylmethyl]-[1,4]diazepan-1-yl}-ethanone]	–	85%	67%	–
3 nM	169 nM	CC(=O)N1CCN(CCc2coc3cc(Oc4nc5ncccc5s4)ccc23)CC1 [Example 257, 1-(4-{2-[6-(Thiazolo[4,5-b]pyridin-2-yloxy)-benzofuran-3-yl]-ethyl}-piperazin-1-yl)-ethanone]	–	68.7%	87%	–
6 nM	57 nM	CS(=O)(=O)C1CCN(Cc2coc3cc(Oc4nc5ncccc5s4)ccc23)CC1 [Example 183, 2-[3-(4-Methanesulfonyl-piperidin-1-ylmethyl)-benzofuran-6-yloxy]-thiazolo[4,5-b]pyridine]	–	83%	85%	–
1 nM	26 nM	CC(=O)NCC1CCN(Cc2coc3cc(Oc4nc5ncccc5s4)ccc23)CC1 [Example 162, N-{1-[6-(Thiazolo[4,5-b]pyridin-2-yloxy)-benzofuran-3-ylmethyl]-piperidin-4-ylmethyl}-acetamide]	–	90%	87%	–
61 nM	260 nM	c1cnc2nc(Oc3ccc4c(CCN5CCOCC5)coc4c3)sc2c1 [Example 256, 2-[3-(2-Morpholin-4-yl-ethyl)-benzofuran-6-yloxy]-thiazolo[4,5-b]pyridine]	–	68.4%	83%	–
6 nM	18 nM	NC(=O)N1CCN(Cc2coc3cc(Oc4nc5ncccc5s4)ccc23)CC1 [Example 239, 4-[6-(Thiazolo[4,5-b]pyridin-2-yloxy)-benzofuran-3-ylmethyl]-piperazine-1-carboxylic acid amide]	–	71%	90%	–
5 nM	24 nM	CS(=O)(=O)NC1CCN(Cc2coc3cc(Oc4nc5ncccc5s4)ccc23)CC1 [Example 244, N-{1-[6-(Thiazolo[4,5-b]pyridin-2-yloxy)-benzofuran-3-ylmethyl]-piperidin-4-yl}-methanesulfonamide]	–	80.7%	89%	–
5 nM	66 nM	CC(=O)N(C)C1CCN(Cc2coc3cc(Oc4nc5ncccc5s4)ccc23)C1 (centres unmarked) [Example 309, N-Methyl-N-{1-[6-(thiazolo[4,5-b]pyridin-2-yloxy)-benzofuran-3-ylmethyl]-pyrrolidin-3-yl}-acetamide]	–	70%	81%	–
16 nM	79 nM	C[C@H]1COCCN1Cc1coc2cc(Oc3nc4ncccc4s3)ccc12 [Example 159, (S)-2-[3-(3-Methyl-morpholin-4-ylmethyl)-benzofuran-6-yloxy]-thiazolo[4,5-b]pyridine]	–	83%	78%	–
